{"source": "patent US10889554B2", "about": "“Excimer forming compounds” (THE GOVERNING COUNCIL OF THE UNIVERSITY OF TORONTO, priority 2013, dated 2021)", "key": {"pYpY peptide": {"system": "pYpY peptide", "assay": "Detection of pY and pYpY peptides with non-pyrene excimer forming derivatives", "format": "binding", "conditions": "for excimer emission peak in response to pYpY peptide in fluorescence emission spectra / peak when pYpY spectra are divided by those of pY or buffer control: 250 μM Zn^2+ triflate complexes, 125 μM peptide, irradiated at 290 nm; for detection limit of pYpY peptide, selectively over pY peptide: 250 μM compound in complex with Zn^2+ (triflate salt), pH 7.5 50 mM HEPES, 10% DMSO", "method": "Non-pyrene excimer forming derivatives (compounds 4-7) were synthesized and assessed for their ability to sense proximally phosphorylated peptides. All experiments for these derivatives were performed in pH 7.5 50 mM HEPES, 10% DMSO. 125 μM pY and pYpY peptides were combined with 250 μM of compounds 4, 5 and 6 (Zn^2+ triflate complexes), or buffer as background control, and the solution was irradiated at 290 nm and fluorescence emission scan was recorded. […] These peaks indicate that the spike in response to the addition of pYpY corresponds to excimer formation, since 420 nm region corresponds to a roughly 100 nm shift from the monomer emission maximum (approximately at 330 nm).\npY and pYpY peptides were titrated into 250 μM of compound 4 in complex with Zn^2+ (triflate salt) in pH 7.5 50 mM HEPES, 10% DMSO. […] Time-resolved experiments were also conducted, where the delay time prior to acquisition of fluorescence was varied (0, 5, 10, and 15 μs; FIG. 21). In this case, the concentration of compound 4 in complex with Zn^2+ (triflate salt) was constant at 40 μM.\npY and pYpY peptides were also titrated into 250 μM of compound 5 in complex with Zn^2+ (triflate salt) in pH 7.5, 50 mM HEPES, 10% DMSO. The fluorescence emission spectra (FIG. 23) indicate a pYpY-selective enhancement in the excimer region of the fluorophore."}, "[1]": {"system": "proximally phosphorylated peptides", "assay": "Detection of proximally phosphorylated peptides in aqueous solution (384 well plate, emission 476 nm)", "format": "binding", "conditions": "Zn^2+ (triflate salt) complex; pH 7.5, 50 mM HEPES, 5% DMSO", "method": "In one example 40 μM of compound 1 pre-metallated with zinc(II) triflate (referred to as “Zn^2+ pre-metallation” in FIG. 13; procedure described in example) was titrated with 80-0.04 μM of pY and pYpY peptides in 50 mM HEPES pH 7.5, 5% DMSO. In another example, 40 μM of compound 1 was dissolved in 50 mM HEPES pH 7.5, 5% DMSO, which contained 40 μM of zinc(II) triflate (referred to as “in situ Zn^2+ metallation” in FIG. 13) and was titrated with 80-0.04 μM of pY and pYpY peptides. Fluorescence measurements were performed as described in Example 2.\n(§1) Various conditions for the detection of proximally phosphorylated peptides and proteins in aqueous solution are shown in Table 1. For the screens, analytes (peptides) were dissolved in a specific buffer at various concentrations (normally 100 μM to 40 nM), and combined with 40 μM of compound 1 in complex with Zn^2+ (triflate salt) dissolved in the same buffer on a 384 well flat bottom black plate. The mixture was incubated for 20 minutes and fluorescence emission intensity at 476 nm (10-20 nm bandwidth) was measured using a Tecan M1000 microplate reader, upon excitation at 350 nm (5 nm bandwidth) at 400 Hz. The different conditions tested were assessed based on the ratios of signal intensity of positive to negative control analytes and signal intensity in general.\nPeptides containing two phosphotyrosine residues, spaced by 2-5 alanine residues, were titrated into 40 μM solution of compound 1 in complex with Zn^2+ (triflate salt) (pH 7.5 50 mM HEPES, 10% propylene, 25 mM NaCl) from 80 μM to 40 nM (FIG. 16). Y-axis is Δ Fluorescence Intensity as defined by the formula in example 2.\nUsing the same methods as described in Example 6, Zn^2+ (triflate salt) complexes of compounds 1, compound 9, compound 15, compound 14 were tested in pH 7.5, 50 mM HEPES, 25 mM NaCl, 10% propylene glycol.\nUsing the same methods as described in Example 6, Zn^2+ (triflate salt) complexes of compound 1 and compound 12 were tested in pH 7.5, 50 mM HEPES, 5% DMSO."}, "[2]": {"system": "proximally phosphorylated proteins (α-casein, β-casein and D-α-casein)", "assay": "In-solution detection of proteins", "format": "binding, Bos taurus", "conditions": "pH 7.5, 50 mM HEPES; for efficiency at detecting the proximally phosphorylated proteins: Zn^2+ (triflate salt) complexes, 75 mM NaCl, 20% DMSO", "description": "Non-phosphorylated (BSA and lysozyme) and distally phosphorylated negative control proteins (ovalbumin) were used in detection methods for in-solution, on gel and on blot applications. Dephosphorylated α-casein (D-α-casein), β-casein and α-casein served as proximally phosphorylated positive controls (see Table 2). The phosphosites presented in Table 2 were obtained from the PhosphoSitePlus database or a UniProt database.\nas §1, with “proteins” for “peptides”, “3. Proteins” for “1. For the screens, analytes (peptides)”, “a” for “a specific”, “general. Among the parameters assessed in this study and using these specific control proteins, the following conditions were selected for proteins studies: pH 5.5 50 mM NaOAc, 50 mM NaCl, 5% DMSO (see FIG. 27). […] Depending on the number of proximally di-phosphorylated sites, lower detection limits could be achieved by using lower concentration of a sensor.” for “general.”\nUsing same methods as described in Example 1.1c, Zn^2+ (triflate salt) complexes of compounds 1 (top left), compound 9 (top right), compound 15 (middle left), and compound 14 (middle right) were tested in pH 7.5, 50 mM HEPES, 75 mM NaCl, 20% DMSO (see FIG. 28).\nUsing same methods as described in Example 14, 40 and 20 μM of Zn^2+ (triflate salt) complexes of compound 1 (top) and compound 12 (bottom) (FIG. 29), were tested in pH 7.5, 50 mM HEPES, 5% DMSO.\nUsing same methods as described above, 60, 40, 20 and 10 μM of Zn^2+ (triflate salt) complexed with compound 12 (FIG. 30), were titrated with 80-0.04 μM of proteins in pH 7.5, 50 mM HEPES, 5% DMSO."}, "β-casein": {"target": "T1, β-casein (Bos taurus, UniProt P02666)", "T1 construct": "purchased Sigma Aldrich C6905-250MG", "T1 sequence (P02666 16-224)": "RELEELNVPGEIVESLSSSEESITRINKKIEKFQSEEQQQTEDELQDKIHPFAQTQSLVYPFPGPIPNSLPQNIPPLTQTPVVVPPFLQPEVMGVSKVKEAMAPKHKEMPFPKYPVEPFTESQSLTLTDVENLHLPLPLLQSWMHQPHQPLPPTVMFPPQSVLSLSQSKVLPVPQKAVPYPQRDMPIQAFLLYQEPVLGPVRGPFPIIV", "assay": "On-gel detection of proximally phosphorylated protein using GaCl3 complexes", "format": "binding", "method": "(§2) Compound 8 was dissolved in 50 mM NaOAc buffer, pH 4.5, 50 mM NaCl, 10% DMSO and combined with 80, 160 or and 240 μM GaCl3 solutions. Each gel contained 4 lanes with equal amounts of BSA, ovalbumin (Ova), β-casein (β-cas) and lysozyme (Lyso) in each lane (left to right: 1, 0.5, 0.25 and 0.125 μg per protein per lane) (see FIG. 37). Gels were stained for 1 h with the sensor solution. Gels were first de-stained with 50 mM NaOAc buffer pH 4.5 for 2 h and then with 50 mM NaOAc buffer pH 4.0 20% acetonitrile for 40 h.\n(§3) Compound 8 was dissolved in 100 mM NaOAc buffer, pH 4.5, 150 mM NaCl, 20% propylene glycol and combined with 10 and 15 μM GaCl3 solutions. Each gel contained 4 lanes with equal amounts of BSA, ovalbumin (Ova), β-casein (β-cas) and lysozyme (Lyso) in each lane (FIG. 40) left to right: 1, 0.5, 0.25 and 0.125 μg per protein per lane). Gels were stained for 1.5 h with the sensor solution. Destaining was performed for variable time (specified at the top) with 50 mM NaOAc, pH 4.0, 20% acetonitrile. Gels were rinsed with MiliQ water for 5 min prior to imaging. Images were acquired using ChemiDoc MP, using a 530 nm emission filter and UV trans excitation.\nas §2, with “Compound 2” for “Compound 8”, “lane) (FIG. 42).” for “lane) (see FIG. 37).”, “h. […] However with the increased destaining time the intensity of β-casein band relative to other proteins was increasing, resulting in a 6.7-fold higher intensity over the distally phosphorylated protein ovalbumin. Lane containing 1 μg of each protein was analyzed (FIG. 43).” for “h.”\nas §3, with “2” for “8”, “45)” for “40)”, “acetonitrile (see FIGS. 45 and 46).” for “acetonitrile.”"}}, "data": [{"smiles": "c1ccc2cc(CN3CCNCCNCCNCC3)ccc2c1", "note": "[compound 5, 1-(naphthalen-2-ylmethyl)-1,4,7,10-tetraazacyclododecane]", "values": [{"measurement": "excimer emission peak in response to pYpY peptide in fluorescence emission spectra", "setting": "pYpY peptide", "value": "No distinct peak"}, {"measurement": "peak when pYpY spectra are divided by those of pY or buffer control", "setting": "pYpY peptide", "value": "distinct peak in the 420 nm region"}, {"measurement": "detection limit of pYpY peptide, selectively over pY peptide", "setting": "pYpY peptide", "value": "single-digit"}]}, {"smiles": "c1cc2ccc3ccc(CCCCOCc4cc(CN5CCNCCNCCNCC5)cc(CN5CCNCCNCCNCC5)c4)c4ccc(c1)c2c34", "values": [{"measurement": "melting point", "value": "55 to 60", "unit": "°C"}]}, {"smiles": "O=C(Cc1ccc2ccc3cccc4ccc1c2c34)N1CCNCCNCCNCC1", "values": [{"measurement": "melting point", "value": "75 to 79", "unit": "°C"}]}, {"smiles": "c1cc2ccc3ccc(CN4CCCNCCNCCCNCC4)c4ccc(c1)c2c34", "note": "[compound 12, 1-(pyren-1-ylmethyl)-1,4,8,11-tetraazacyclotetradecane]", "values": [{"measurement": "detecting proximally phosphorylated peptides", "setting": "[1]", "value": "potent"}, {"measurement": "detection limit on lowering the concentration of the sensor", "setting": "[2]; 60, 40, 20 and 10 μM Zn^2+ complex, 5% DMSO", "value": "improved"}]}, {"smiles": "c1ccc(CN(CCCCc2ccc3ccc4cccc5ccc2c3c45)Cc2ccccn2)nc1", "note": "[compound 15, 4-(pyren-1-yl)-N,N-bis(pyridin-2-ylmethyl)butan-1-amine]", "values": [{"measurement": "efficiency at detecting the proximally phosphorylated proteins", "setting": "[2]", "value": "comparable efficiency"}, {"measurement": "melting point", "value": "61 to 62", "unit": "°C"}]}, {"smiles": "O=C(CCCc1ccc2ccc3cccc4ccc1c2c34)N1CCNCCNCCNCC1", "values": [{"measurement": "melting point", "value": "83 to 86", "unit": "°C"}]}, {"smiles": "c1ccc2c(CN3CCNCCNCCNCC3)cccc2c1", "note": "[compound 4, 1-(naphthalen-1-ylmethyl)-1,4,7,10-tetraazacyclododecane]", "values": [{"measurement": "excimer emission peak in response to pYpY peptide in fluorescence emission spectra", "setting": "pYpY peptide", "value": "No distinct peak"}, {"measurement": "peak when pYpY spectra are divided by those of pY or buffer control", "setting": "pYpY peptide", "value": "distinct peak in the 420 nm region"}, {"measurement": "detection limit of pYpY peptide, selectively over pY peptide", "setting": "pYpY peptide", "value": "single-digit"}, {"measurement": "signal selectivity towards pYpY with 15 μs delay time", "setting": "pYpY peptide; time-resolved, 40 μM compound in complex with Zn^2+", "value": "retained"}]}, {"smiles": "O=C(O)CN(CC(=O)O)c1ccccc1OCCOc1cc(NC(=O)c2ccc3ccc4cccc5ccc2c3c45)ccc1N(CC(=O)O)CC(=O)O", "note": "[compound 8, 2,2′-((2-(2-(2-(bis(carboxymethyl)amino)-5-(pyrene-1-carboxamido)phenoxy)ethoxy)phenyl)azanediyl)diacetic acid]", "values": [{"measurement": "selectivity for β-casein after 2 h destaining", "setting": "β-casein; 80 μM compound, 1:1 GaCl3, stained 1 h", "value": "improved"}, {"measurement": "β-casein over distally phosphorylated ovalbumin", "setting": "β-casein; 80 μM compound, 1:1 GaCl3, stained 1 h, 40 h destaining, 1 μg per protein", "value": 4.5, "unit": "fold"}, {"measurement": "selectivity for β-casein with more than 1:1 equivalent of compound:GaCl3", "setting": "β-casein; 50 mM NaOAc pH 4.5, 50 mM NaCl, 10% DMSO, 160 or 240 μM GaCl3", "value": "did not result in good selectivity"}, {"measurement": "selective staining for β-casein, no destaining", "setting": "β-casein; 100 mM NaOAc pH 4.5, 150 mM NaCl, 20% propylene glycol, 1:1 and 1:1.5 compound:GaCl3, stained 1.5 h", "value": "did not result in selective staining"}, {"measurement": "staining of β-casein band following 16 h destain", "setting": "β-casein; 100 mM NaOAc pH 4.5, 150 mM NaCl, 20% propylene glycol, destain 50 mM NaOAc, pH 4.0, 20% acetonitrile", "value": "most prominently stained band"}]}, {"smiles": "c1ccc2c(c1)cc(CN1CCNCCNCCNCC1)c1ccccc12", "note": "[compound 6, 1-(phenanthren-9-ylmethyl)-1,4,7,10-tetraazacyclododecane]", "values": [{"measurement": "excimer emission peak in response to pYpY peptide in fluorescence emission spectra", "setting": "pYpY peptide", "value": "No distinct peak"}]}, {"smiles": "c1ccc(CN(Cc2ccccn2)Cc2ccc3ccc4cccc5ccc2c3c45)nc1", "note": "[compound 14, 1-(pyren-1-yl)-N,N-bis(pyridin-2-ylmethyl)methanamine]", "values": [{"measurement": "efficiency at detecting the proximally phosphorylated proteins", "setting": "[2]", "value": "comparable efficiency"}, {"measurement": "melting point", "value": "108 to 112", "unit": "°C"}]}]}
